Our source for the EC50 and Ki values is PubChem BioAssay AID2050 (NMMLSC, 2009).

The structures appear in SMILES notation. Calls of active or inactive are those of the source.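 The calls were made as follows: active = EC50 at or below 30 µM together with a response span of at least a set limit; inactive = the rest.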

The target in the assay is GTPase HRas (Homo sapiens) (UniProt P01112). Put plainly: activated Ras mutant GTP-binding inhibitors, SAR follow-up, biochemical, pyrazoline analogs, multiplex bead flow cytometry (AID 2050). The settings on record: GST-Ras beads, Bodipy-FL-GTP binding; for Ki: measured here: Ki calculated from EC50.

By EC50 is commonly meant the concentration giving half of the maximal effect. Broadly, the Ki is the dissociation constant of the complex between target and ligand, obtained from inhibition or displacement.

Sequence of GTPase HRas (Homo sapiens) (P01112 whole entry, looked up): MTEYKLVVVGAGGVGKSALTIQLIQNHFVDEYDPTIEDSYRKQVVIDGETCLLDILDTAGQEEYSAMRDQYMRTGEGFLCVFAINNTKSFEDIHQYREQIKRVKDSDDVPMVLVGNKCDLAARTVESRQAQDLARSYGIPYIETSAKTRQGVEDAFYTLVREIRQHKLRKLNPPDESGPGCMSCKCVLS

In the case of `COc1ccc(C2CC(c3ccc(F)cc3)=NN2c2ccccc2)cc1OC` (stereo unspecified), the EC50 was > 30 µM (inactive).

For the compound `O=[N+]([O-])c1ccc(N2N=C(c3ccccc3)CC2c2ccc(O)cc2)cc1` (stereo unspecified), the EC50 was > 30 µM (inactive).

Regarding `Cc1ccccc1C1CC(c2ccccc2)=NN1c1ccc(S(N)(=O)=O)cc1` (stereo unspecified), the EC50 is > 30 µM (inactive).

For `NS(=O)(=O)c1ccc(N2N=C(c3ccccc3)CC2c2cccc(Br)c2)cc1` (stereo unspecified), the EC50 was > 30 µM (inactive).

Turning to `NS(=O)(=O)c1ccc(N2N=C(c3ccccc3)CC2c2ccc(Cl)cc2)cc1` (stereo unspecified), the EC50 was > 30 µM (inactive).

Consider `COc1ccc(C2CC(C3CCCCC3)=NN2c2ccc(S(N)(=O)=O)cc2)cc1` (stereo unspecified), for which the EC50 was > 30 µM (inactive).

Consider `O=[N+]([O-])c1cccc(C2CC(c3ccc(F)cc3)=NN2c2ccccc2)c1` (stereo unspecified), for which the EC50 is > 30 µM (inactive).

As to `NS(=O)(=O)c1ccc(N2N=C(c3ccc(Cl)cc3)CC2c2ccccc2)cc1` (stereo unspecified), the EC50 entry is “inactive” and the Ki was 0.01 µM.

As to `Fc1ccccc1C1CC(c2ccc(Br)cc2)=NN1c1ccc(Br)cc1` (stereo unspecified), the EC50 was > 30 µM (inactive).

Take `COc1ccc(C2CC(c3cccc(OC)c3)=NN2c2ccc(S(N)(=O)=O)cc2)cc1` (stereo unspecified): the EC50 was > 30 µM (inactive).

Take `COc1ccc(C2CC(c3ccc(Cl)cc3)=NN2c2ccc(S(N)(=O)=O)cc2)cc1` (stereo unspecified): the EC50 was > 30 µM (inactive).

On to `FC(F)(F)c1ccccc1C1CC(c2ccc(Br)cc2)=NN1c1ccccc1` (stereo unspecified), for which the EC50 was > 30 µM (inactive).

Consider `COc1ccc(C2CC(C(C)(C)C)=NN2c2ccc(S(N)(=O)=O)cc2)cc1` (stereo unspecified), for which the EC50 is > 30 µM (inactive).

In the case of `NS(=O)(=O)c1ccc(N2N=C(c3ccccc3)CC2c2cccc(Cl)c2)cc1` (stereo unspecified), the EC50 is > 30 µM (inactive).

Regarding `Cc1cccc(C2CC(c3ccccc3)=NN2c2ccc(S(N)(=O)=O)cc2)c1` (stereo unspecified), the EC50 is > 30 µM (inactive).

Regarding `COc1ccc(C2CC(c3ccccc3F)=NN2c2ccc(S(N)(=O)=O)cc2)cc1` (stereo unspecified), the EC50 is > 30 µM (inactive).

Consider `Cc1ccccc1N1N=C(c2ccccc2)CC1c1ccc(N(C)C)cc1` (stereo unspecified), for which the EC50 is > 30 µM (inactive).

As to `COc1ccc(C2=NN(c3ccccc3F)C(c3ccc(F)cc3)C2)cc1` (stereo unspecified), the EC50 is > 30 µM (inactive).

With `COc1ccc(C2=NN(c3ccc(S(N)(=O)=O)cc3)C(c3ccc(OC)cc3)C2)cc1` (stereo unspecified), the EC50 was > 30 µM (inactive).

`Clc1ccc(N2N=C(c3ccccc3)CC2c2ccccc2)cc1` (stereo unspecified): the EC50 is > 30 µM (inactive).

As for `COc1ccc(C2CC(c3ccc(F)cc3)=NN2c2cccc(F)c2)cc1OC` (stereo unspecified), the EC50 is > 30 µM (inactive).

Turning to `CN(C)c1ccc(C2CC(c3ccc(Br)cc3)=NN2c2ccccc2)cc1` (stereo unspecified), the EC50 was > 30 µM (inactive).

Consider `COc1ccc(C2CC(c3ccccc3C(F)(F)F)=NN2c2ccc(S(N)(=O)=O)cc2)cc1` (stereo unspecified), for which the EC50 is > 30 µM (inactive).

For `COc1ccc(-c2cc(-c3ccccc3)nn2-c2ccc(S(N)(=O)=O)cc2)cc1`, the EC50 is > 30 µM (inactive).

Turning to `COc1ccc(C2CC(c3ccccc3Br)=NN2c2ccc(S(N)(=O)=O)cc2)cc1` (stereo unspecified), the EC50 was > 30 µM (inactive).

Take `COc1ccc(C2CC(c3ccccc3)=NN2c2ccc(C(N)=O)cc2)cc1` (stereo unspecified): the EC50 is > 30 µM (inactive).

`Cc1ccc(-c2cc(C(F)(F)F)nn2-c2ccc(S(N)(=O)=O)cc2)cc1`: the EC50 is > 30 µM (inactive).

For the compound `O=S(=O)(c1ccc(N2N=C(c3ccccc3)CC2c2ccccc2)cc1)C(F)F` (stereo unspecified), the EC50 is > 30 µM (inactive).

Take `COc1ccc(C2CC(c3cccnc3)=NN2c2ccc(S(N)(=O)=O)cc2)cc1` (stereo unspecified): the EC50 was > 30 µM (inactive).

On to `COc1ccc(C2=NN(c3ccc(Cl)c(Cl)c3)C(c3ccc(OC)cc3)C2)cc1` (stereo unspecified), for which the EC50 was > 30 µM (inactive).

In the case of `COc1ccc(C2=NN(c3cccc(F)c3)C(c3ccc(Cl)cc3)C2)cc1` (stereo unspecified), the EC50 is > 30 µM (inactive).

Consider `COc1ccc(C2CC(c3cccs3)=NN2c2ccc(S(N)(=O)=O)cc2)cc1` (stereo unspecified), for which the EC50 is > 30 µM (inactive).

For `Cc1ccc(C2CC(c3ccccc3)=NN2c2ccc(S(N)(=O)=O)cc2)cc1` (stereo unspecified), the EC50 is > 30 µM (inactive).

`COc1ccc(C2CC(C)=NN2c2ccc(S(N)(=O)=O)cc2)cc1` (stereo unspecified): the EC50 was > 30 µM (inactive).

For the compound `Fc1ccc(C2=NN(c3cccc(Br)c3)C(c3ccccc3)C2)cc1` (stereo unspecified), the EC50 is > 30 µM (inactive).

For the compound `COc1cccc(C2CC(c3ccccc3)=NN2c2ccc(S(N)(=O)=O)cc2)c1` (stereo unspecified), the EC50 was > 30 µM (inactive).

Consider `COc1ccc(C2CC(c3ccc(Br)cc3)=NN2c2ccccc2Cl)cc1` (stereo unspecified), for which the EC50 was > 30 µM (inactive).

Turning to `NS(=O)(=O)c1ccc(N2N=C(c3ccccc3)CC2c2ccc(Br)cc2)cc1` (stereo unspecified), the EC50 was > 30 µM (inactive).

Turning to `CCc1ccc(C2=NN(c3ccc(S(N)(=O)=O)cc3)C(c3ccc(F)cc3)C2)cc1` (stereo unspecified), the EC50 is > 30 µM (inactive).

For the compound `NS(=O)(=O)c1ccc(N2N=C(c3ccc(Br)cc3)CC2c2ccc(F)cc2)cc1` (stereo unspecified), the EC50 was > 30 µM (inactive).

`FC(F)(F)c1cccc(N2N=C(c3ccc(Cl)cc3)CC2c2ccccc2Cl)c1` (stereo unspecified): the EC50 is > 30 µM (inactive).

In the case of `Clc1cccc(N2N=C(c3ccccc3)CC2c2ccccc2)c1` (stereo unspecified), the EC50 is > 30 µM (inactive).

In the case of `Cc1onc(-c2ccccc2)c1-c1ccc(S(N)(=O)=O)cc1`, the EC50 is > 30 µM (inactive).

As for `COc1ccccc1C1CC(c2ccccc2)=NN1c1ccccc1` (stereo unspecified), the EC50 was > 30 µM (inactive).

In the case of `COc1ccc(C2CC(c3ccc(Cl)cc3)=NN2c2ccccc2)cc1OC` (stereo unspecified), the EC50 was > 30 µM (inactive).

For the compound `NS(=O)(=O)c1ccc(N2N=C(c3ccccc3)CC2c2ccccc2)cc1` (stereo unspecified), the EC50 was > 30 µM (inactive).

For the compound `Brc1ccc(N2N=C(c3ccccc3)CC2c2ccccc2)cc1` (stereo unspecified), the EC50 is > 30 µM (inactive).

Consider `COc1ccc(C2=NN(c3ccccc3)C(c3ccc(OC)c(OC)c3C(=O)O)C2)cc1` (stereo unspecified), for which the EC50 was > 30 µM (inactive).

Regarding `COc1ccc(C2CC(c3ccccc3)=NN2c2ccc([N+](=O)[O-])cc2)cc1` (stereo unspecified), the EC50 is > 30 µM (inactive).

Take `COc1ccc(C2=NN(c3ccccc3)C(c3ccc(Cl)cc3)C2)cc1` (stereo unspecified): the EC50 entry is “inactive” and the Ki is 0.24 µM.

Regarding `O=[N+]([O-])c1cccc(C2CC(c3ccccc3)=NN2c2ccccc2)c1` (stereo unspecified), the EC50 was > 30 µM (inactive).

Take `COc1ccc(C2CC(c3ccccc3)=NN2c2ccc(C(=O)O)cc2)cc1` (stereo unspecified): the EC50 was > 30 µM (inactive).

Regarding `NS(=O)(=O)c1ccc(N2N=C(c3ccccc3)CC2c2ccccc2Br)cc1` (stereo unspecified), the EC50 is > 30 µM (inactive).

On to `COc1ccc(C2=NN(c3cccc(F)c3)C(c3ccc(OC)cc3)C2)cc1` (stereo unspecified), for which the EC50 is > 30 µM (inactive).

In the case of `COc1ccc(C2CC(c3ccncc3)=NN2c2ccc(S(N)(=O)=O)cc2)cc1` (stereo unspecified), the EC50 was > 30 µM (inactive).

Turning to `CC(=O)Oc1ccc(C2=NN(c3ccccc3)C(c3ccccc3)C2)cc1` (stereo unspecified), the EC50 is > 30 µM (inactive).

For `COc1ccc(C2CC(c3cccc(F)c3)=NN2c2ccc(S(N)(=O)=O)cc2)cc1` (stereo unspecified), the EC50 is > 30 µM (inactive).

With `COc1ccc(C2CC(c3cccc(Br)c3)=NN2c2ccc(S(N)(=O)=O)cc2)cc1` (stereo unspecified), the EC50 was > 30 µM (inactive).

Consider `CN(C)c1ccc(C2CC(c3ccc(Cl)cc3)=NN2c2ccccc2)cc1` (stereo unspecified), for which the EC50 is > 30 µM (inactive).
